In patent US6159988A, “Arylcycloalkyl derivatives, their production and their use” (Hoeschst Aktiengesellschaft, priority 1992, dated 2000):
Where a name gives a salt, the structure may show the parent alone.

Tests used:
IL-1 = IL-1 release inhibition (Table 2); type: cell-based, human
Method: 10 ml of human blood were carefully drawn from the antecubital vein using a syringe containing 1 ml of a solution of 3.8% sodium citrate. After dilution with 10 ml PM 16 (Serva, Heidelberg, FRG) and underlayering with 15 ml Lymphoprep® (Molter GmbH), the sample was centrifuged at 400×g for 40 min at 20° C. The mononuclear cells forming a white ring between lymphoprep and plasma were carefully aspirated by a syringe, diluted 1:1 with PM 16 and centrifuged again at 400×g for 10 min. […] was washed with 10 ml RPMI 1640 (Gibco, Berlin, FRG), containing additionally 300 mg/l L-glutamine, 25 mmol/l […] HEPES, 100 μg/ml streptomycin and 100 μg/ml penicillin. Finally, using a Coulter counter IT, the cell suspension was adjusted to 5×10^6 cells/ml. The cells consist of approx. 90% lymphocytes and 10% monocytes.
10 μl DMSO/water (1:10, v/v), containing the test compound, was added to 480 μl of a suspension, containing 5×10^6 mononuclear cells. The synthesis of IL-1 was stimulated by the addition of 10 μl DSMO/water (1:10, v/v), containing 0,5 μg LPS (Salmonella abortus equi, Sigma). After incubation at 37° C. for 18 hours, the samples were cooled to 0° C. and centrifuged for 1 min. in a table centrifuge. 25 μl aliquots of the supernatant were assayed for IL-1 alpha activity using a commercially available 125-J-IL-1-alpha radioimmunoassay Kit (Amersham/UK), and for IL-1 beta in a similar way using the specific test kit. Control experiments were performed as described without test compound, or with cycloheximide as a test compound.

[1] = test system: adjuvant arthritis in rats; assay: Adjuvant-induced arthritis in rats; type: in vivo, rat (female Wistar); conditions: 30 mg/kg orally once every day for 12 days, compared to control
[2] = test system: Cotton Pellet Granuloma in Rats; assay: Inhibition of carrageenin cotton pellet granuloma in rats; type: in vivo, rat (Wistar); conditions: 30 mg/kg, p.o. × 5
Method: The implantation of carrageenin impregnated cotton pellets results in production of large, well-defined granuloma which are easily dissected. The potency of the compounds are assessed by measuring the reduction in granuloma tissue formation.
Cotton wool pellets weighing 40 mg were used for sterilization.
Pellets were dried overnight under a lamp. The pellets in the weight range of 42-44 mg were selected.
Rats (in groups of 6, male or female, Charles River, Wistar, weighing 140-150 g) were anaesthetized with ether. The back was shaved and cleaned; swabbed with alcohol and one centimeter incision was made in the lower midback. A small channel was made bilaterally using a blunt forceps and one cotton pellet placed in each channel. Air from the incision was removed and the wound was stitched. […] Three hours after the administration of the last dose on day 7, animals were sacrificed. The pellets were removed by cutting the skin along the dorsal midline and peeling the skin away from the bodywall in both lateral directions. The pellets were weighed and then placed in drying oven at 140° C. overnight. The dry weights were then recorded and the amount of granuloma was assessed by subtracting the original pellet weight from wet weights and dry weights. The data was evaluated using the difference of left and right weights (cf. Table 4).

[3] = test system: experimental allergic encephalomyelitis (EAE) in guinea pigs; assay: Experimental allergic encephalomyelitis (EAE) in guinea pigs; type: in vivo, guinea pig; conditions: 100 mg/kg p.o. once daily for 10 days
Description: This method permits the evaluation of the potential of the test compound in preventing the development of an autoimmune disorder leading to demyelination in the guinea pigs which can be equated to multiple sclerosis disease in humans. EAE is a reproducible chronic inflammatory autoimmune disease of the central nervous system in which an animal is immunized with either a homologous or heterologous extract of the whole brain and spinal cord, which contains the basic myelin protein together with Freund's Complete Adjuvant (FCA). A pathological condition would set in during ten to twenty days following immunization, which is characterized by weight loss, abnormal gait, mild to severe ataxia, paraparesis and moribund state leading to death. The potential of the test compounds to prevent this autoimmune condition was evaluated by observing the severity of the disease and mortality in comparison with untreated and hydrocortisone (standard drug) treated animals.
Guinea pigs (200-300 g) were randomly distributed into groups of 10 each after receiving 0.075 ml of it brain and spinal cord extract in FCA intradermally on the back and 0.050 ml intrapedally in one hind paw. Compound 9 of Table 2 was administered orally at 3 mg/kg once daily for 10 days. The standard compound was administered 100 mg/kg p.o. once daily for 10 days. The weights of the animals were noted every day. Eight days after the induction of the disease, the animals were rated regularly for the severity of the disease and mortality was monitored.

[4] = Homo sapiens, read-out: IL-1 Rel. Inhib.

With `COc1cc(OC)c(C2CCCCC2OC(=O)[C@H](C)N)c(O)c1C(=O)/C=C/c1cccc(Br)c1` (mixture of isomers) [Compound 7 of Table 2, trans-(+/-)-2-[4,6-Dimethoxy-2-hydroxy-3-(3-(3-bromophenyl)prop-2-(E)-enoyl)phenyl]cyclohexyl-2-(S)-amino propanoate] the inhibition at 1 µM (IL-1; [4]) was 35%.

For `COc1ccc(C(=O)/C=C/c2cccc(Br)c2)c(O)c1[C@@H]1CCCC[C@H]1O` (racemic) [Compound 16 of Table 2, trans-(+/-)-2-[6-Methoxy-2-hydroxy-3-(3-(3-bromophenyl))prop-2-(E)-enoyl]phenylcyclohexanol], the “IL-1 Rel. Inhib.” value (IL-1; 11.6 μM) was 81%.

`COc1cc(O)c(C(=O)/C=C/c2cccc(Br)c2)c(OC)c1[C@@H]1CCCC[C@H]1O` (racemic) [Compound 17 of Table 2, trans-(+/-)-2-[2,6-Dimethoxy-4-hydroxy-3-(3-(3-bromophenyl))prop-2-(E)-enoyl]phenylcyclohexanol] was tested, and the “IL-1 Rel. Inhib.” value (IL-1; 10.8 μM) was 71%.

With `COc1ccc([C@@H]2CCCC[C@H]2O)c(O)c1C(=O)/C=C/c1cccc(Br)c1.COc1ccc([C@@H]2CCCC[C@H]2O)c(O)c1C(=O)/C=C/c1cccc(Br)c1.O` (racemic) [Compound 18 of Table 2, trans-(+/-)-2-[2-Hydroxy-4-methoxy-3-(3-(3-bromophenyl))prop-2-(E)-enoyl)phenylcyclohexanol hemihydrate] the “IL-1 Rel. Inhib.” value (IL-1; 5 μM) was 71%.

`COc1cc(OC)c([C@@H]2CCCC[C@H]2OC(C)=O)c(O)c1C(=O)/C=C/c1cccc(Br)c1` (relative stereo) [Compound 1 of Table 2] was tested, and the inhibition at 10 µM (IL-1; [4]) was 41%.

`COc1cc(OC)c([C@@H]2CCCC[C@H]2OC(=O)CN(C)C)c(O)c1C(=O)/C=C/c1cccc(Br)c1` (relative stereo) [Compound 2 of Table 2] gave an inhibition at 17 µM (IL-1; [4]) of 50%.

Work on `COc1cc(OC)c([C@@H]2CCCC[C@H]2OC(=O)CN)c(O)c1C(=O)/C=C/c1cccc(Br)c1` (relative stereo) [Compound 3 of Table 2, trans-(+/-)-2-[4,6-Dimethoxy-2-hydroxy-3-(3-(3-bromophenyl)prop-2-(E)-enoyl)phenyl]cyclohexyl-2-amino acetate hydrochloride monohydrate] yielded an inhibition at 17 µM (IL-1; [4]) of 63%.

In the case of `COc1cc(OC)c([C@@H]2CCCC[C@H]2OC(=O)CN2CCCCC2)c(O)c1C(=O)/C=C/c1cccc(Br)c1` (relative stereo) [Compound 4 of Table 2], the inhibition at 16 µM (IL-1; Homo sapiens, 16 μM, read-out: IL-1 Rel. Inhib.) is reported as 43%.

With `COc1cc(OC)c([C@@H]2CCCC[C@H]2O)c(O)c1C(=O)/C=C/c1cccc(Br)c1` (relative stereo) [Compound 6 of Table 1] the “reduction in the uninjected paw volume” value [1] was “very slight reduction”.

Compound `COc1cc(OC)c([C@H]2CCCC[C@H]2O)c(O)c1C(=O)/C=C/c1cccc(Br)c1` (relative stereo) [Compound 11 of Table 2, cis-(+/-)-2-[4,6-Dimethoxy-2-hydroxy-3-(3-(3-bromophenyl))prop-2-(E)-enoyl]phenylcyclohexanol] has an inhibition at 10.8 µM (IL-1; Homo sapiens, 10.8 μM, read-out: IL-1 Rel. Inhib.) of 90%.

`COc1cc(OC)c([C@@H]2CCCC[C@H]2O)c(O)c1C(=O)CCc1cccc(Br)c1` (relative stereo) [Compound 12 of Table 2] showed an inhibition at 10.5 µM (IL-1; Homo sapiens, 10.5 μM, read-out: IL-1 Rel. Inhib.) of 26%.

In the case of `COc1ccc(CCC(=O)c2c(OC)cc(OC)c([C@@H]3CCCC[C@H]3OC(=O)CN)c2O)cc1OC` (relative stereo) [Compound 19 of Table 2, trans-(+/-)-1-[4,6-Dimethoxy-2-hydroxy-3-(2-(β-amino)acetoxy)cyclohexyl]phenyl-(3-(3,4-dimethoxy)phenyl)propanone hydrochloride monohydrate], the inhibition at 10 µM (IL-1; [4]) is reported as 51%.

`COc1cc(OC)c([C@@H]2CCCC[C@H]2O)c(O)c1C(=O)/C=C/c1cccc(C)c1` (relative stereo) [Compound 20 of Table 2] showed an inhibition at 10 µM (IL-1; [4]) of 49%.

With `COc1cc(OC)c([C@@H]2CCCC[C@H]2O)c(O)c1C(=O)/C=C/c1cc(C)ccc1C` (relative stereo) [Compound 21 of Table 2, trans-(+/-)-2-[4,6-Dimethoxy-2-hydroxy-3-(3-(2,5-dimethylphenyl))prop-2-(E)-enoyl]phenylcyclohexanol monohydrate] the inhibition at 10 µM (IL-1; [4]) was 96%.

`COc1cc(/C=C/C(=O)c2c(OC)cc(OC)c([C@@H]3CCCC[C@H]3O)c2O)cc(Br)c1OC` (relative stereo) [Compound 26 of Table 2] showed an inhibition at 9.5 µM (IL-1; Homo sapiens, 9.5 μM, read-out: IL-1 Rel. Inhib.) of 50%.

`COc1cc(OC)c([C@@H]2CCCC[C@H]2O)c(O)c1C(=O)/C=C/c1cccc(N)c1` (relative stereo) [Compound 28 of Table 2] was tested, and the inhibition at 1 µM (IL-1; [4]) was 33%.

Work on `COc1cc(OC)c([C@@H]2CCCC[C@H]2OC(=O)CN)c(O)c1C(=O)/C=C/c1cccc(Br)c1` [Compound 5 of Table 2, trans-(-)-2-[4,6-Dimethoxy-2-hydroxy-3-(3-(3-bromophenyl)prop-2-(E)-enoyl)phenyl]cyclohexyl-2-amino acetate hydrochloride monohydrate] yielded an inhibition at 1 µM (IL-1; [4]) of 95%.

Work on `COc1cc(OC)c([C@H]2CCCC[C@@H]2OC(=O)CN)c(O)c1C(=O)/C=C/c1cccc(Br)c1` [Compound 6 of Table 2, trans-(+)-2-[4,6-Dimethoxy-2-hydroxy-3-(3-(3-bromophenyl)prop-2-(E)-enoyl)phenyl]cyclohexyl-2-amino acetate hydrochloride monohydrate] yielded an inhibition at 1 µM (IL-1; [4]) of 88%.

Compound `COc1cc(OC)c([C@@H]2CCCC[C@H]2O)c(O)c1C(=O)/C=C/c1cccc(Br)c1` [Compound 14 of Table 2, trans-(-)-2-[4,6-Dimethoxy-2-hydroxy-3-(3-(3-bromophenyl))prop-2-(E)-enoyl]phenylcyclohexanol] has an inhibition at 0.3 µM (IL-1; [4]) of 50%.

In the case of `COc1cc(OC)c([C@H]2CCCC[C@@H]2O)c(O)c1C(=O)/C=C/c1cccc(Br)c1` [Compound 15 of Table 2, trans-(+)-2-[4,6-Dimethoxy-2-hydroxy-3-(3-(3-bromophenyl))prop-2-(E)-enoyl]phenylcyclohexanol], the inhibition at 0.3 µM (IL-1; [4]) is reported as 50%.

For `COc1cc(OC)c(C2CCCCC2)c(O)c1C(=O)/C=C/c1ccc(Cl)cc1` [Compound 22 of Table 2], the inhibition at 12 µM (IL-1; Homo sapiens, 12 μM, read-out: IL-1 Rel. Inhib.) was 30%.

`C[C@]12CCC(=O)C=C1CC[C@@H]1[C@@H]2[C@@H](O)C[C@@]2(C)[C@H]1CC[C@]2(O)C(=O)CO` [Hydrocortisone, reference compound] was tested, and the “% Inhibition of granuloma, Dry wt.” value [2] was 37.5%, the “% Inhibition of granuloma, Wet wt.” value [2] was 20.5% and the “reduction in the mortality” value [3] was 21%.
